Measurements reported in PMC9011347, “Small-Molecule Inhibitors Targeting Lipolysis in Human Adipocytes” (Journal of the American Chemical Society, 2022).

Tested on: primary human adipocytes
Experiment: Lipolysis in primary human adipocytes
Assay type: cell-based
Procedure: Figure 3 NG-497 inhibits lipolysis in human SGBS and primary human adipocytes. SGBS adipocytes were preincubated with NG-497 for 1 h at the indicated concentrations. Subsequently, lipolysis was stimulated with isoproterenol (1 μM) and (a) FA and (b) glycerol release was determined after 1 h using commercial kits. (c) Dose-dependent inhibition of isoproterenol-stimulated FA release from SGBS adipocytes by the HSL inhibitor 76-068 (HSLi). […] (e) DAG accumulation in SGBS adipocytes was analyzed by thin-layer chromatography (TLC) following 1 h incubation with HSLi (25 μM), NG-497 (40 μM), and a combination of both inhibitors. […] Subsequently, basal and Forskolin (5 μM)-stimulated release of radioactivity was determined via liquid scintillation over a period of 2 h in the presence or absence of NG-497 (40 μM). FA release was calculated based on FA concentrations in conditioned media after 2 h as determined using a commercial kit. […] Subsequently, the medium was changed and FA release was monitored over a period of 3 h under the indicated conditions. […] Statistical significance was determined via ANOVA followed by Bonferroni post hoc test (^#p < 0.05; ^##p < 0.01; ^###p < 0.001). […]
Released free fatty acids were quantified via NEFA C kit (Fujifilm Wako Chemicals, Neuss, Germany) and release of p-nitrophenol was measured at 405 nm. […]

In the case of `CCOc1ccc(-c2cc(OC)cc(C(=O)OC(C)C)n2)cc1` [NG-497], the activity at 40 µM (Homo sapiens, Adipocyte, primary adipocytes, 1 h preincubation with NG-497 40 μM, within the third hour after pretreatment, read-out: lipolytic activity regained after inhibitor removal) was roughly 40% and the “Forskolin-induced FA release” value (primary human adipocytes, NG-497 40 μM, Forskolin 5 μM, 2 h, [9,10-3H] oleic acid label) was “diminished Forskolin-induced FA release to basal level”.
